This is an account of results in ChEMBL document CHEMBL3045618, “Effect of seven new orchard pesticides on Galendromus occidentalis in laboratory studies” (2009).

As a reminder, the mortality is the share of the test organisms that died.

Common to all, as to assay type: functional
Test [1] has as its system Galendromus occidentalis. Briefly: Toxicity against Metaseiulus occidentalis adults in bean leaf disk infested with two-spotted spider mites assessed as average number of eggs laid (fecundity) at 0.1341 g AI/L treated using worst-case laboratory exposure procedure measured after 72 hr (reference value: 2.23/day).
In test [2] the test system is Galendromus occidentalis. Description: Toxicity against Metaseiulus occidentalis adults in bean leaf disk infested with two-spotted spider mites assessed as repellency at 0.1341 g AI/L treated using worst-case laboratory exposure procedure measured after 24 hr (reference value: 3.6%).
Test [3] has as its system Galendromus occidentalis. Description: Toxicity against Metaseiulus occidentalis adults in bean leaf disk infested with two-spotted spider mites assessed as corrected mortality at 2x0.1341 g AI/L treated using worst-case laboratory exposure procedure measured after 72 hr.
Test [4] has as its system Galendromus occidentalis. Briefly: Toxicity against Metaseiulus occidentalis adults in bean leaf disk infested with two-spotted spider mites assessed as repellency at 0.1341 g AI/L treated using worst-case laboratory exposure procedure measured after 72 hr (reference value: 16.1%).
The subject of test [5] is Galendromus occidentalis. Briefly: Toxicity against Metaseiulus occidentalis adults in bean leaf disk infested with two-spotted spider mites assessed as average number of eggs laid (fecundity) at 0.1341 g AI/L treated using worst-case laboratory exposure procedure measured after 48 hr (reference value: 2.30/day).
Test [6] has as its system Galendromus occidentalis. Description: Toxicity against Metaseiulus occidentalis adults in bean leaf disk infested with two-spotted spider mites assessed as corrected mortality at 0.1341 g AI/L treated using worst-case laboratory exposure procedure measured after 72 hr.
Test [7] has as its system Galendromus occidentalis. Briefly: Toxicity against Metaseiulus occidentalis adults in bean leaf disk infested with two-spotted spider mites assessed as repellency at 0.1341 g AI/L treated using worst-case laboratory exposure procedure measured after 48 hr (reference value: 13.6%).
The subject of test [8] is Galendromus occidentalis. Briefly: Ovicidal activity against Metaseiulus occidentalis eggs in bean leaf disk infested with two-spotted spider mites assessed as corrected cumulative mortality at 442 g/L SC formulation treated using worst-case laboratory exposure procedure measured after 144 hr (reference value: 0.7%).
Test [9] deals with Galendromus occidentalis. Description: Toxicity against Metaseiulus occidentalis adults in bean leaf disk infested with two-spotted spider mites assessed as average number of eggs laid (fecundity) at 0.1341 g AI/L treated using worst-case laboratory exposure procedure measured after 24 hr (reference value: 2.11/day).
Test [10] has as its system Galendromus occidentalis. Briefly: Toxicity against Metaseiulus occidentalis adults in bean leaf disk infested with two-spotted spider mites assessed as corrected mortality at 4x0.1341 g AI/L treated using worst-case laboratory exposure procedure measured after 72 hr.
For test [11], the system named is Galendromus occidentalis. Description: Toxicity against Metaseiulus occidentalis adults in bean leaf disk infested with two-spotted spider mites assessed as average number of eggs laid (fecundity) at 0.1600 g AI/L treated using worst-case laboratory exposure procedure measured after 48 hr (reference value: 2.30/day).
Test [12] deals with Galendromus occidentalis. Briefly: Toxicity against Metaseiulus occidentalis adults in bean leaf disk infested with two-spotted spider mites assessed as average number of eggs laid (fecundity) at 0.1600 g AI/L treated using worst-case laboratory exposure procedure measured after 24 hr (reference value: 2.11/day).
In test [13] the test system is Galendromus occidentalis. Briefly: Toxicity against Metaseiulus occidentalis adults in bean leaf disk infested with two-spotted spider mites assessed as repellency at 0.1600 g AI/L treated using worst-case laboratory exposure procedure measured after 24 hr (reference value: 3.6%).
Test [14] concerns Galendromus occidentalis. Description: Toxicity against Metaseiulus occidentalis adults in bean leaf disk infested with two-spotted spider mites assessed as repellency at 0.1600 g AI/L treated using worst-case laboratory exposure procedure measured after 48 hr (reference value: 13.6%).
The subject of test [15] is Galendromus occidentalis. Briefly: Toxicity against Metaseiulus occidentalis adults in bean leaf disk infested with two-spotted spider mites assessed as average number of eggs laid (fecundity) at 0.1600 g AI/L treated using worst-case laboratory exposure procedure measured after 72 hr (reference value: 2.23/day).
Test [16] concerns Galendromus occidentalis. Briefly: Toxicity against Metaseiulus occidentalis adults in bean leaf disk infested with two-spotted spider mites assessed as corrected mortality at 4x0.1600 g AI/L treated using worst-case laboratory exposure procedure measured after 72 hr.
Test [17] concerns Galendromus occidentalis. Description: Toxicity against Metaseiulus occidentalis adults in bean leaf disk infested with two-spotted spider mites assessed as corrected mortality at 0.1600 g AI/L treated using worst-case laboratory exposure procedure measured after 72 hr.
In test [18] the test system is Galendromus occidentalis. Briefly: Toxicity against Metaseiulus occidentalis adults in bean leaf disk infested with two-spotted spider mites assessed as repellency at 0.1600 g AI/L treated using worst-case laboratory exposure procedure measured after 72 hr (reference value: 16.1%).
In test [19] the test system is Galendromus occidentalis. Description: Toxicity against Metaseiulus occidentalis adults in bean leaf disk infested with two-spotted spider mites assessed as corrected mortality at 2x0.1600 g AI/L treated using worst-case laboratory exposure procedure measured after 72 hr.
The test system of test [20] is Galendromus occidentalis. Description: Ovicidal activity against Metaseiulus occidentalis eggs in bean leaf disk infested with two-spotted spider mites assessed as corrected cumulative mortality at 250 g/kg WG formulation treated using worst-case laboratory exposure procedure measured after 144 hr (reference value: 0.7%).

SMILES strings stand for the structures.

On to `CC[C@H]1CCC[C@H](O[C@H]2CC[C@H](N(C)C)[C@@H](C)O2)[C@@H](C)C(=O)C2=C[C@@H]3[C@@H](C=C(C)[C@@H]4C[C@@H](O[C@@H]5O[C@@H](C)[C@H](OC)[C@@H](OC)[C@H]5OC)C[C@@H]34)[C@@H]2CC(=O)O1.CC[C@H]1CCC[C@H](O[C@H]2CC[C@H](N(C)C)[C@@H](C)O2)[C@@H](C)C(=O)C2=C[C@@H]3[C@@H](C=C[C@@H]4C[C@@H](O[C@@H]5O[C@@H](C)[C@H](OC)[C@@H](OC)[C@H]5OC)C[C@@H]34)[C@@H]2CC(=O)O1`, for which the values for the Activity with Galendromus occidentalis [1], in the test on Galendromus occidentalis [5] and in the test with Galendromus occidentalis [9] were 2.28 day⁻¹, 1.59 day⁻¹ and 1.57 day⁻¹, respectively. Besides, the Repellency in the test on Galendromus occidentalis [2] worked out at 10.9%; in the test with Galendromus occidentalis [4] it was 28.8%; in the test with Galendromus occidentalis [7] it was 24.4%. The mortality in the test on Galendromus occidentalis [3] was 0%; with Galendromus occidentalis [6], 0.4%; in the test with Galendromus occidentalis [10] it was 0%. Also, in the test with Galendromus occidentalis [8], the mortality at 442000 µg/mL (stock) is 6.6%.
In the case of `CN1COCN(Cc2cnc(Cl)s2)/C1=N\[N+](=O)[O-]` [THIAMETHOXAM], the Activity with Galendromus occidentalis [11] was determined as 0.33 day⁻¹; in the test with Galendromus occidentalis [12], 1.44 day⁻¹; in the test on Galendromus occidentalis [15], 0.58 day⁻¹. In addition, the Repellency in the test on Galendromus occidentalis [13] was determined as 5.1%; in the test on Galendromus occidentalis [14], 34%; in the test on Galendromus occidentalis [18], 41%. The mortality stood at 8.5% in the test on Galendromus occidentalis [16], 8% in the test with Galendromus occidentalis [17], 6.2% in the test with Galendromus occidentalis [19] and 4.3% in the test on Galendromus occidentalis [20].
